Measurements published in PMC4602232, “Structural basis for recognition of Emi2 by Polo-like kinase 1 and development of peptidomimetics blocking oocyte maturation and fertilization” (Scientific Reports, 2015).
Entries after “also recorded” stand apart in the source; their conditions may differ. Non-standard residues stand in square brackets, D forms with d. No end group written: not given here. pT = C[C@@H](OP(=O)(O)O)[C@H](N)C(=O)O

Key:
mouse oocyte maturation = settings: cited from earlier work
Description: In Xenopus and in mice, the general scheme of calcium-mediated signal transduction has been well established, but the detailed molecular mechanism has been elusive. For instance, Plk1 is involved in Emi2 phosphorylation and destabilization, but the mechanism of binding of Plk1 to Emi2 has not yet been determined. Plk1 is known to be involved in various cell cycle-related processes, and recently it received attention as a target of anticancer treatments.

[1] = test system: Emi2^1–300-mCherry reporter in MII oocytes; assay: Emi2^1–300-mCherry degradation after parthenogenetic activation (time-lapse microscopy); assay type: cell-based, mouse; settings: SrCl2 treatment in the presence of 100 nM BI2536; n = 3 oocytes
Description: pRN3-Emi2^1−300-mCherry plasmids containing the Plk1 recognition site and a degron for a SCF family ubiquitin ligase were constructed from synthetic Emi2^1–300 gene fragments and subcloned into the pRN3 vector as an mCherry fusion by means of Gibson Assembly[50]. The plasmids were linearized by digestion with SfiI; then cRNA was synthesized with T3 mMessage mMachine (Life Technologies). In vitro transcripts were purified by phenol-chloroform extraction and isopropyl alcohol precipitation and stored at −80 °C until use.
GV stage oocytes were injected with various peptidomimetics at 300 μM in a 50% aqueous solution (w/v) of dimethyl sulfoxide. Peptidomimetics were injected into oocyte by means of a Eppendorf Femto Jet (Eppendorf AG, Hamburg, Germany) and a Nikon Diaphot ECLIPSE TE300 inverted microscope (Nikon UK Ltd., Kingston upon Thames, Surrey, UK) equipped with a Narishige MM0-202N hydraulic three-dimensional micromanipulator (Narishige Inc., Sea Cliff, NY, USA) and subjected to in vitro maturation as described above. As a control, the BG34 reagent with threonine residues instead of phosphothreonine[35] was injected into oocytes at 300 μM. To test the oocytes for parthenogenetic activation, we collected mature MII oocytes and injected them with various reagents as described above for GV oocytes. […]

bromodomain BRD4 = settings: cited from earlier work
Description: On the other hand, due to the high degree of similarity among kinase domains’ ATP-binding pockets, achieving good specificity is a difficult task. […] Because PBD exists only in the Plk family (Plk1 through Plk4), targeting of this site can result in high specificity along with enhanced binding affinity; these properties may faci ...

[2] = biological target: T1, Mouse Plk1 Polo box domain (Plk1-PBD, amino acid residues 367-603) (mouse, UniProt Q07832 367-603); assay: ITC; phosphorylated peptide (1.2 mM) injected into Plk1-PBD (0.1 mM) in the cell; 15 °C; 20 mM Tris-Cl pH 8.0, 300 mM NaCl, 3 mM DTT; one-site binding model; settings: both partners purified
T1 construct: Polo-like kinase 1 (Plk1), mouse, polo box domain, residues 367-603; TEV site ENLYFQ/S between the His6 tag and the PBD; cleavage between Q and S should leave a Ser before residue 367 (surmised); also called polo box domain of Polo-like kinase 1; source: E. coli BL21 (DE3), purified (Ni-NTA, TEV digestion, Superdex 75 gel filtration); not shown: His6, N-terminal, cleaved
T1 sequence (Q07832 367-603): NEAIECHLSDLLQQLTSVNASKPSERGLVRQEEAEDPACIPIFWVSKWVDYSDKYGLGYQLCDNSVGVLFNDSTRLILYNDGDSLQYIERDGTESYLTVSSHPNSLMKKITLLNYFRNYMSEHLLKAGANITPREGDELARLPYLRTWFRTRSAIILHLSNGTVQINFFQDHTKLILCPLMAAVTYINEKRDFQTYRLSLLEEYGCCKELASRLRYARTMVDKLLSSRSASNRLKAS

Molecule	mouse oocyte maturation (in words) (mouse oocyte maturation)	decrease of Emi2-mCherry fluorescence after parthenogenetic activation (in words) [1]	binding and inhibition of BRD4 (in words) (bromodomain BRD4)	Kd [2] [µM]	stoichiometry N [2]
CC[C@@H]1C(=O)N(C)c2cnc(Nc3ccc(C(=O)NC4CCN(C)CC4)cc3OC)nc2N1C1CCCC1 [BI2536]	impairs mouse oocyte maturation	did not cause any reduction in fluorescence even after 100 min; also recorded: blocks Emi2 degradation after parthenogenetic activation by SrCl2	bind and inhibit bromodomain BRD4 at nanomolar concentration	–	–
FSQHKTS[pT]I-NH2 (Made on Rink amide resin, so probably a C-terminal amide (surmised); source: synthetic peptide (Fmoc SPPS, Rink amide resin, RP-HPLC)) [Phosphorylated Emi2 169-177 peptide (phospho-Thr176)]	–	–	–	29.6	0.92 ratio of Emi2^169–177 to Plk1-PBD
SPLVTS[pT]IKTEDVVSNSQNSRLHFSQHKTS[pT]I (peptide, UniProt Q8CDI2 146-177, looked up, Made on Rink amide resin, so probably a C-terminal amide (surmised); source: synthetic peptide (Fmoc SPPS, Rink amide resin, RP-HPLC)) [Phosphorylated Emi2 146-177 peptide (phospho-Thr152 and phospho-Thr176)]	–	–	–	–	0.47 ratio of Emi2^146–177 to Plk1-PBD
